Where two headings read alike, the source gives them in different places.
Columns and labels:
BaF3 (EGFR Del19/C797S) = biological target: T1, BaF3 (EGFR Del19/C797S) (Homo sapiens, UniProt P00533, C797S, cells depend on it, form not given); experiment: Cell proliferation IC50 assay (Cell Titer GLO), BaF3 DC cells; format: cell-based, mouse; details: Table 6, 72 h
T1 construct: BaF3 (EGFR Del19/C797S)|DC|RPMI1640 + 10% FBS
Procedure: (§1) IC50 of compounds in the present invention was determined by Cell Titer GLO reagent from Promega. The procedures are as follows:
(§2) Tumor cells were cultured in specified medium in an incubator at 37° C. and 5% CO2. The cells were passaged periodically. Cells at the logarithmic growth phase were collected for plating at a density of 2000-4000 cells/well. The next day, the compounds of the present invention were serially diluted and added to the cells, with DMSO being the negative control and the culture media without cells being the blank control. The plate was incubated in the incubator for 72 h. The cell viability assay was performed by adding the detection reagents to the cell culture media according to Cell Titer GLO reagent instructions and detecting luminescent signals on an EnVision microplate reader (PerkinElmer).
(§3) Inhibition of cell growth by the compounds of the present invention was plotted by Prism Graphpad software for statistically calculating the IC50 of the compound of the present invention.

A431 = experiment: Cell proliferation IC50 assay (Cell Titer GLO), A431 cells; format: cell-based; details: Homo sapiens
Procedure: as §1, §2, §3

[1] = test system: BaF3 (EGFR Del19/T790M/C797S); experiment: Cell proliferation IC50 assay (Cell Titer GLO), BaF3 DTC cells; format: cell-based; details: Mus musculus, Ba/F3 EGFR-Del19/T790M/C797S, Table 6, 72 h
Procedure: as §1, §2, §3

[2] = test system: BaF3 (EGFR L858R/T790M/C797S); experiment: Cell proliferation IC50 assay (Cell Titer GLO), BaF3 LTC cells; format: cell-based; details: Mus musculus, Ba/F3 EGFR, Table 6, 72 h
Procedure: as §1, §2, §3

BaF3 (EGFR WT) = experiment: Cell proliferation IC50 assay (Cell Titer GLO), BaF3 WT cells; format: cell-based; details: Mus musculus, Ba/F3 EGFR, Table 6, 10 ng/ml EGF, 72 h
Procedure: as §1, §2, §3

[3] = A-431, Table 6, A431, 72 h, read-out: A431 IC50
[4] = A-431, 72 h, read-out: A431 IC50 (nM)

T1 sequence (P00533 with tags, fused parts or gaps DEL746-750/C797S, form open): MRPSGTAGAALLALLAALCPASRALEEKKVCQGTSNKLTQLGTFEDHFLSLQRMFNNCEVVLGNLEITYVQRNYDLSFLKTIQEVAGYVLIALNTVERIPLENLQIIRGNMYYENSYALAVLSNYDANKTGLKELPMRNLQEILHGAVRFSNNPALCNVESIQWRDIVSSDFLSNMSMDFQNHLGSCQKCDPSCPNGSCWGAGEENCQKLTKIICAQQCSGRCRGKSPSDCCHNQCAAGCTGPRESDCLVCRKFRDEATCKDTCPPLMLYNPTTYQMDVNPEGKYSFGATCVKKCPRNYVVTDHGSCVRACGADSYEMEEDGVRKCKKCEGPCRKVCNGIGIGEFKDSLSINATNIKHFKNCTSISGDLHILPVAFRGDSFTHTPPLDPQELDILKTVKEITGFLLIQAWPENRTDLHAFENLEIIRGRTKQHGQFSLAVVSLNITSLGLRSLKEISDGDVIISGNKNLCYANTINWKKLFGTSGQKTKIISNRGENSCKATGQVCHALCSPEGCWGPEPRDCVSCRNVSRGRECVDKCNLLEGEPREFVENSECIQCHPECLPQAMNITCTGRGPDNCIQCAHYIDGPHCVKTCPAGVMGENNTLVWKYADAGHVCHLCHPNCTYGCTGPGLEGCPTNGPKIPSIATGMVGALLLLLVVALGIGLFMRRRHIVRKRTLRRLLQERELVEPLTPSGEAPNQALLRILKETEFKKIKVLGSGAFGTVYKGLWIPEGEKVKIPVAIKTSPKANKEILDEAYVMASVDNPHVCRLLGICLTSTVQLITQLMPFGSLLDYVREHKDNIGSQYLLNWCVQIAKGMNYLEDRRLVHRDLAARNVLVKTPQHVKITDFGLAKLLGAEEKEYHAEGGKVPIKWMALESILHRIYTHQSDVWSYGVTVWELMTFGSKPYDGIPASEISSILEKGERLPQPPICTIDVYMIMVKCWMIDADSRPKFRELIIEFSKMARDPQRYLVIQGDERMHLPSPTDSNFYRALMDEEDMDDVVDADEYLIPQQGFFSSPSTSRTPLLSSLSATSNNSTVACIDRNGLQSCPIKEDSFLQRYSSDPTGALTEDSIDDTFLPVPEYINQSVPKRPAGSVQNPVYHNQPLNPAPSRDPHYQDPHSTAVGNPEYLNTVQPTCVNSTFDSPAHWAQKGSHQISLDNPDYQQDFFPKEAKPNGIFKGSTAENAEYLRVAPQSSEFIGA

| SMILES | IC50 (BaF3 (EGFR Del19/C797S)) [nM] | IC50 (A431; [3]) [nM] | IC50 [1] [nM] | IC50 [2] [nM] | IC50 (BaF3 (EGFR WT)) [nM] | IC50 (A431; [4]) [nM] |
| --- | --- | --- | --- | --- | --- | --- |
| COc1cc(N2CCC(N3CCN(CCCCOc4cccc5c4CN(C4CCC(=O)NC4=O)C5=O)CC3)CC2)c(C2CC2)cc1Nc1ncc(Cl)c(Nc2ccccc2P(C)(C)=O)n1 (stereo not drawn) [Example E35] | 8.9 | 1640 | 5.59 | 25.7 | 2500 | – |
| CCc1cc(Nc2ncc(Cl)c(Nc3ccccc3P(C)(C)=O)n2)c(Cl)cc1N1CCC(N2CCN(CCC#Cc3cccc4c3CN(C3CCC(=O)NC3=O)C4=O)CC2)CC1 (stereo not drawn) [Example E46] | 9.2 | 1610 | 10.1 | 17.7 | 1200 | – |
| CCc1cc(Nc2ncc(Cl)c(Nc3ccccc3P(C)(C)=O)n2)c(OC)cc1N1CCC(N2CCN(C(=O)COc3cccc4c3CN(C3CCC(=O)NC3=O)C4=O)CC2)CC1 (stereo not drawn) [Example E82] | – | 1780 | 17 | 162 | 781 | – |
| CCc1cc(Nc2ncc(-c3cc[nH]n3)c(Nc3ccccc3P(C)(C)=O)n2)c(OC)cc1N1CCC(N2CCN(CCOc3cccc4c3CN(C3CCC(=O)NC3=O)C4=O)CC2)CC1 (stereo not drawn) [Example E164] | 7.7 | > 4000 | – | > 4000 | > 4000 | – |
| CCc1cc(Nc2ncc(-n3ccnc3)c(Nc3ccccc3P(C)(C)=O)n2)c(OC)cc1N1CCC(N2CCN(CCOc3cccc4c3CN(C3CCC(=O)NC3=O)C4=O)CC2)CC1 (stereo not drawn) [Example E170] | 3.5 | > 4000 | – | > 4000 | > 4000 | – |
| CCc1cc(Nc2ncc(-n3cncn3)c(Nc3ccccc3P(C)(C)=O)n2)c(OC)cc1N1CCC(N2CCN(CCOc3cccc4c3CN(C3CCC(=O)NC3=O)C4=O)CC2)CC1 (stereo not drawn) [Example E171] | 6.3 | > 4000 | – | > 4000 | > 4000 | – |
| CCc1cc(Nc2ncc(-c3cnn(C)c3)c(Nc3ccccc3P(C)(C)=O)n2)c(OC)cc1N1CCC(N2Cc3ccc(Oc4cccc5c4CN(C4CCC(=O)NC4=O)C5=O)cc3C2)CC1 (stereo not drawn) [Example E172] | 2.4 | > 4000 | – | > 4000 | 1070 | – |
| CCc1cc(Nc2ncc(Cl)c(Nc3ccccc3P(C)(C)=O)n2)c(OC)cc1N1CCC(N2Cc3ccc(Sc4cccc5c4CN(C4CCC(=O)NC4=O)C5=O)cc3C2)CC1 (stereo not drawn) [Example E173] | 21.7 | > 4000 | – | 181 | 1530 | – |
| CCc1cc(Nc2ncc(-c3ccnn3C)c(Nc3ccccc3P(C)(C)=O)n2)c(OC)cc1N1CCC(N2CCN(CCOc3cccc4c3CN(C3CCC(=O)NC3=O)C4=O)CC2)CC1 (stereo not drawn) [Example E176] | 2.4 | > 4000 | – | > 4000 | > 4000 | – |
| CCc1cc(Nc2ncc(-c3nnc(C)o3)c(Nc3ccccc3P(C)(C)=O)n2)c(OC)cc1N1CCC(N2CCN(CCOc3cccc4c3CN(C3CCC(=O)NC3=O)C4=O)CC2)CC1 (stereo not drawn) [Example E177] | 15.7 | > 4000 | – | > 4000 | > 4000 | – |
| CCc1cc(Nc2ncc(-c3cc(C)n[nH]3)c(Nc3ccccc3P(C)(C)=O)n2)c(OC)cc1N1CCC(N2CCN(CCOc3ccc4c(c3)CN(C3CCC(=O)NC3=O)C4=O)CC2)CC1 (stereo not drawn) [Example E192] | 43.8 | > 4000 | – | > 4000 | > 4000 | – |
| CCc1cc(Nc2ncc(-c3cn(C)nn3)c(Nc3ccccc3P(C)(C)=O)n2)c(OC)cc1N1CCC(N2CCN(CCOc3ccc4c(c3)CN(C3CCC(=O)NC3=O)C4=O)CC2)CC1 (stereo not drawn) [Example E193] | 14.9 | > 4000 | – | > 4000 | 1320 | – |
| CCc1cc(Nc2ncc(-c3cnn(C)c3)c(Nc3ccc(C)cc3P(C)(C)=O)n2)c(OC)cc1N1CCC(N2CCN(Cc3ccc4c(c3)CN(C3CCC(=O)NC3=O)C4=O)CC2)CC1 (stereo not drawn) [Example E216] | 1 | > 4000 | – | > 4000 | 926 | – |
| CCc1cc(Nc2ncc(-c3cnn(C)c3)c(Nc3ccccc3P(C)(C)=O)n2)c(OC)cc1N1CCC(N2CCN(Cc3ccc4c(c3)CN(C3CCC(=O)NC3=O)C4=O)CC2)CC1 (stereo not drawn) [Example E217] | 0.9 | > 4000 | – | > 4000 | 623 | – |
| CCc1cc(Nc2ncc(-n3cnc(C)n3)c(Nc3ccccc3P(C)(C)=O)n2)c(OC)cc1N1CCC(N2CCN(CCOc3ccc4c(c3)CN(C3CCC(=O)NC3=O)C4=O)CC2)CC1 (stereo not drawn) [Example E218] | 1 | > 4000 | – | > 4000 | 2090 | – |
| CCc1cc(Nc2ncc(-n3ccnn3)c(Nc3ccccc3P(C)(C)=O)n2)c(OC)cc1N1CCC(N2CCN(CCOc3ccc4c(c3)CN(C3CCC(=O)NC3=O)C4=O)CC2)CC1 (stereo not drawn) [Example E220] | 4 | > 4000 | – | > 4000 | > 4000 | – |
| CCc1cc(Nc2ncc(-c3cnn(C)c3)c(Nc3ccccc3P(C)(C)=O)n2)c(OC)cc1N1CCC(N2CCN([C@H]3C[C@H](Oc4cc(F)cc5c4CN(C4CCC(=O)NC4=O)C5=O)C3)CC2)CC1 (stereo partly drawn) [Example E222] | < 0.24 | > 4000 | – | 89.7 | 133 | – |
| CCc1cc(Nc2ncc(Cl)c(Nc3ccccc3P(C)(C)=O)n2)c(OC)cc1N1CCC(N2CCN(CCN(C)c3ccc4c(c3)CN(C3CCC(=O)NC3=O)C4=O)CC2)CC1 (stereo not drawn) [Example E223] | 11.5 | – | – | 69.4 | > 4000 | > 4000 |
| CCc1cc(Nc2ncc(-c3cnn(C)c3)c(Nc3ccccc3P(C)(C)=O)n2)c(OC)cc1N1CCC(N2CCN(CCN(C)c3ccc4c(c3)CN(C3CCC(=O)NC3=O)C4=O)CC2)CC1 (stereo not drawn) [Example E224] | 0.9 | – | – | > 4000 | 654 | > 4000 |

The next lines start with results.

| IC50 (BaF3 (EGFR Del19/C797S)) [nM] | IC50 (A431; [3]) [nM] | IC50 [1] [nM] | IC50 [2] [nM] | IC50 (BaF3 (EGFR WT)) [nM] | SMILES | IC50 (A431; [4]) [nM] |
| --- | --- | --- | --- | --- | --- | --- |
| 3.1 | 1130 | 9.49 | 24.7 | 541 | COc1cc(N2CCC(N3CCC4(CCC(=Cc5cccc6c5CN(C5CCC(=O)NC5=O)C6=O)CC4)C3)CC2)c(C2CC2)cc1Nc1ncc(Cl)c(Nc2ccccc2P(C)(C)=O)n1 (stereo not drawn) [Example E36] | – |
| 3.1 | 1210 | 4.84 | 15.3 | 1070 | CCc1cc(Nc2ncc(Cl)c(Nc3ccccc3P(C)(C)=O)n2)c(OC)cc1N1CCC(N2CCN(CC/C=C\c3cccc4c3CN(C3CCC(=O)NC3=O)C4=O)CC2)CC1 (stereo not drawn) [Example E37] | – |
| 3.4 | 1020 | 6.23 | 16.5 | 461 | CCc1cc(Nc2ncc(Cl)c(Nc3ccccc3P(C)(C)=O)n2)c(OC)cc1N1CCC(N2CCN(CCCCCc3ccc4c(c3)CN(C3CCC(=O)NC3=O)C4=O)CC2)CC1 (stereo not drawn) [Example E38] | – |
| 12.6 | 1350 | 21.9 | 58.1 | 1260 | CCc1cc(Nc2ncc(Cl)c(Nc3ccccc3P(C)(C)=O)n2)c(OC)cc1N1CCC(N2CCN(C(=O)CCC#Cc3cccc4c3CN(C3CCC(=O)NC3=O)C4=O)CC2)CC1 (stereo not drawn) [Example E50] | – |
| 2 | 1290 | – | 135 | 1190 | CCc1cc(Nc2nc(Nc3ccccc3P(C)(C)=O)c3cn[nH]c3n2)c(OC)cc1N1CCC(N2CCN(CCCCOc3cccc4c3CN(C3CCC(=O)NC3=O)C4=O)CC2)CC1 (stereo not drawn) [Example E161] | – |
| 19.5 | 1460 | – | 50.3 | 815 | CCc1cc(Nc2ncc(Cl)c(Nc3ccccc3P(C)(C)=O)n2)c(OC)cc1N1CCC(N2CCC3(CC(Oc4ccc5c(c4)CN(C4CCC(=O)NC4=O)C5=O)C3)C2)CC1 (stereo not drawn) [Example E187] | – |
| 0.8 | 1010 | – | > 4000 | 496 | CCc1cc(Nc2ncc(-c3cnn(C)c3)c(Nc3ccccc3P(C)(C)=O)n2)c(OC)cc1N1CCC(N2CCN(CCOc3cc4c(cc3F)C(=O)N(C3CCC(=O)NC3=O)C4)CC2)CC1 (stereo not drawn) [Example E189] | – |
| 3.1 | 1150 | – | 69.2 | 947 | CCc1cc(Nc2ncc(Cl)c(Nc3ccccc3P(C)(C)=O)n2)c(OC)cc1N1CCC(N2CCN([C@H]3C[C@H](Oc4ccc5c(c4)CN(C4CCC(=O)NC4=O)C5=O)C3)CC2)CC1 (stereo partly drawn) [Example E191] | – |
| 0.5 | 1360 | – | > 4000 | 535 | CCc1cc(Nc2ncc(-c3cnn(C)c3)c(Nc3ccccc3P(C)(C)=O)n2)c(OC)cc1N1CCC(N2CCN(CCOc3cc(F)cc4c3CN(C3CCC(=O)NC3=O)C4=O)CC2)CC1 (stereo not drawn) [Example E194] | – |
| 16.1 | 1350 | – | 532 | 1010 | CCc1cc(Nc2nc(Nc3ccccc3P(C)(C)=O)c3cn[nH]c3n2)c(OC)cc1N1CCC(N2CCN(CCOc3cc4c(cc3F)C(=O)N(C3CCC(=O)NC3=O)C4)CC2)CC1 (stereo not drawn) [Example E208] | – |
| 3.4 | 1460 | – | > 4000 | 616 | CCc1cc(Nc2ncc(-n3cnc(C)c3)c(Nc3ccccc3P(C)(C)=O)n2)c(OC)cc1N1CCC(N2CCN(CCOc3ccc4c(c3)CN(C3CCC(=O)NC3=O)C4=O)CC2)CC1 (stereo not drawn) [Example E214] | – |

— US20240408216A1, “PROTEIN INHIBITOR OR DEGRADING AGENT, PHARMACEUTICAL COMPOSITION CONTAINING SAME AND PHARMACEUTICAL USE” (JING MEDICINE TECHNOLOGY (SHANGHAI) LTD., priority 2021, published 2024)
